Legend:
[1] = target: T1, Ras-Raf binding; assay: In vitro binding assay: Ras-Raf binding inhibition (GST-Raf on resin, GTPγ[35S]-labeled Ras, scintillation counting); conditions: GST-Raf fusion protein on resin, radioactive Ras, compound dissolved in 10% DMSO
T1 construct: fused on or other part: GST tag on Ras was cleaved off with PreScission protease before the test
Protocol: • 1) A fusion protein of Raf (target protein of Ras) and GST (glutathione S-transferase) was expressed in Escherichia coli using GST fusion protein expression vector (pGEX-6P-1 vector (GE Healthcare)). The expressed GST-Raf fusion protein was immobilized on an affinity carrier for purification (glutathione Sepharose 4B: resin (GE Healthcare)). • 2) Radioisotope-labeled Ras
GTPγ[^35S] (Perkin Elmer), which is one of the GTP analogs, was added to Ras in which GST tag was cleaved using GST fusion protein cleavage protease (PreScission protease (GE Healthcare)) to prepare radioisotope-labeled Ras. • 3) Measurement of Ras-Raf binding inhibition activity
GST-Raf fusion protein immobilized on the resin in the above-mentioned 1) and the radioactive Ras prepared in the above-mentioned 2) were incubated in the presence of various concentrations of a compound dissolved in 10% DMSO to promote the binding reaction between Ras and Raf. The resin in the reaction solution was washed, and then, the complex of GST-Raf fusion protein and radioactive Ras was eluted by adding glutathione. The binding activity between Ras and Raf was measured by scintillation counting of the radioactivity of the eluate. Thus, the Ras-Raf binding inhibition activity by addition of various compounds was evaluated.

[2] = tested on: human colorectal cancer cell line, SW480, which has active form of K-Ras; assay: In vivo assay: tumor growth inhibition in SW480 xenograft in nude mice; conditions: 80 mg/kg orally once a day, five consecutive days per week, after three-week administration; SW480 subcutaneous in female nude mice; control group = 100%
Protocol: A cell suspension (about 2×10^6 cells) of human colorectal cancer cell line, SW480, which has active form of K-Ras, was subcutaneously inoculated and implanted with a syringe at the right flank of 6 to 8-week-old nude mice (female). After a tumor grew to the grossly recognizable size (40-100 mm^3), a compound (80 mg/kg) dissolved in a solvent (Cremophor EL:Ethanol:Water=1:1:6) was orally administered once a day for five consecutive days per week. This is considered as the compound administration group. A solvent alone was administered to control group in the same manner. After the compound administration started, tumor volumes of both the groups were measured twice a week. Tumor growth inhibition rates were calculated by comparing tumor volumes of control group (100%) and those of compound administration group after three-week administration to evaluate anticancer activity of a compound. The tumor growth inhibition rates in the case of orally administering compounds of the present invention at 80 mg/Kg are shown in the following Table 7.

Compound: O=C1/C(=C/c2ccccc2OCCOc2ccccc2)SC(=S)N1NC1=NS(=O)(=O)c2ccccc21 [Example 53]
- IC50 [1]: 160 µM

Compound: O=C1/C(=C/c2ccccc2Oc2ccccc2)SC(=S)N1NC1=NS(=O)(=O)c2ccccc21 [Example 13]
- IC50 [1]: 100 µM
- tumor growth inhibition rate (%) [2]: 70%

Compound: O=C1/C(=C/c2ccc(OCc3ccccc3)cc2)SC(=S)N1NC1=NS(=O)(=O)c2ccccc21 [Example 16]
- IC50 [1]: 100 µM
- tumor growth inhibition rate (%) [2]: 69%

Compound: O=C1/C(=C/c2ccc([N+](=O)[O-])cc2[N+](=O)[O-])SC(=S)N1NC1=NS(=O)(=O)c2ccccc21 [Example 7]
- IC50 [1]: 200 µM
- tumor growth inhibition rate (%) [2]: 85%

Compound: O=C1/C(=C/c2ccccc2OCCOc2ccc([N+](=O)[O-])cc2)SC(=S)N1NC1=NS(=O)(=O)c2ccccc21 [Example 56]
- IC50 [1]: 90 µM
- tumor growth inhibition rate (%) [2]: 62%

Compound: Cc1ccc(OCCOc2ccccc2/C=C2\SC(=S)N(NC3=NS(=O)(=O)c4ccccc43)C2=O)cc1 [Example 55]
- IC50 [1]: 100 µM

Compound: CC(C)(C)OC(=O)NCCOc1cccc(C=C2SC(=S)N(NC3=NS(=O)(=O)c4ccccc43)C2=O)c1 [Example 167, 3-[(4-Oxo-5-(3-(2-t-butoxycarbonylaminoethyloxy)benzylidene)-2-thioxothiazolidin-3-yl)amino]-1,2-benzothiazole 1,1-dioxide]
- IC50 [1]: 360 µM

Compound: O=C1/C(=C/c2ccc(Br)cc2)SC(=S)N1NC1=NS(=O)(=O)c2ccccc21 [Example 6]
- IC50 [1]: 400 µM
- tumor growth inhibition rate (%) [2]: 85%

Compound: O=C1/C(=C/c2ccc(Oc3ccccc3)cc2)SC(=S)N1NC1=NS(=O)(=O)c2ccccc21 [Example 1, 3-[(4-oxo-5-(4-phenoxybenzylidene)-2-thioxothiazolidin-3-yl)amino]-1,2-benzisothiazole 1,1-dioxide]
- IC50 [1]: 70 µM
- tumor growth inhibition rate (%) [2]: 88%

Compound: O=C1/C(=C/c2cccc(Oc3ccccc3)c2)SC(=S)N1NC1=NS(=O)(=O)c2ccccc21 [Example 12]
- IC50 [1]: 50 µM
- tumor growth inhibition rate (%) [2]: 86%
